From ChEMBL document CHEMBL4219112, “Rational drug design and synthesis of new α-Santonin derivatives as potential COX-2 inhibitors” (Bioorg Med Chem Lett, 2018) come the findings set out here.

Data set [1] has as its system RIF-1. Briefly: Cytotoxicity against mouse RIF1 cells at 62.5 to 750 uM after 24 hrs. The format is cell-based. Conditions: rif-1, 24 h.
Data set [2] concerns RIF-1. The experiment in a line: Inhibition of COX2 expression levels in PH-PDT-treated mouse RIF1 cells at 750 uM after 24 hrs by Western blot analysis. The format is functional, cell-based. In general terms: In western blotting, separated proteins are transferred to a membrane and probed.
The target in data set [3] is T1, Prostaglandin G/H synthase 2 (Mus musculus) (UniProt Q05769).
T1 sequence (whole entry): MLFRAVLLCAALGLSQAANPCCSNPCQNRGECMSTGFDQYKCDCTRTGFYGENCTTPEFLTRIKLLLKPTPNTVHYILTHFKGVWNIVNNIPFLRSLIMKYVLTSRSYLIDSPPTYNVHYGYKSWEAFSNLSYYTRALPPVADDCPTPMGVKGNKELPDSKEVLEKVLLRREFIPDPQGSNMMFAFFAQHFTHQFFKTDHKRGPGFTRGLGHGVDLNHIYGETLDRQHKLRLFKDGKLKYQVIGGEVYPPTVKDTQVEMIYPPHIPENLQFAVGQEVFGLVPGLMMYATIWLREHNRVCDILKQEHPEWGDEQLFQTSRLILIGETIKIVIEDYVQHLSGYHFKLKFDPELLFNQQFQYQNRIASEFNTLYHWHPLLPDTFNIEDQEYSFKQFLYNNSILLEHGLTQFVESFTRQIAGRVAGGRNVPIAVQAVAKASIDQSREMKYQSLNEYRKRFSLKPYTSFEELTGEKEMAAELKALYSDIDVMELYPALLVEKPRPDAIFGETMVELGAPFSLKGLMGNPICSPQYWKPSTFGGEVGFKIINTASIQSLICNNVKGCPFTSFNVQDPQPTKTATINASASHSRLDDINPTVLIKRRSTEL
Briefly: Inhibition of COX-2 in PH-PDT-treated mouse RIF1 cells assessed as suppression of PGE2 production at 500 uM after 24 hrs by spectrophotometric analysis.

For data set [4], the system named is RIF-1. The experiment in a line: Inhibition of COX2 expression levels in PH-PDT-treated mouse RIF1 cells at 500 uM after 24 hrs by Western blot analysis. The format is functional, cell-based.
For data set [5], the system named is RIF-1. Briefly: Inhibition of COX2 expression levels in PH-PDT-treated mouse RIF1 cells at 62.5 uM after 24 hrs by Western blot analysis. Type of data set: functional, cell-based.
The target in data set [6] is T1, Prostaglandin G/H synthase 2 (Mus musculus). The experiment in a line: Inhibition of COX-2 in PH-PDT-treated mouse RIF1 cells assessed as suppression of PGE2 production at 750 uM after 24 hrs by spectrophotometric analysis.
For data set [7], the system named is RIF-1. The experiment in a line: Inhibition of COX2 expression levels in PH-PDT-treated mouse RIF1 cells at 400 uM after 24 hrs by Western blot analysis. The format is functional, cell-based.
For data set [8], the system named is RIF-1. The experiment in a line: Cytotoxicity against mouse RIF1 cells at 50 to 800 uM after 24 hrs. Type of data set: cell-based. Conditions: rif-1, 24 h.
Data set [9] relates to RIF-1. The experiment in a line: Cytotoxicity against mouse RIF1 cells at 500 to 1000 uM after 24 hrs. Type of data set: cell-based. The note with it: rif-1, 24 h.
In data set [10] the test system is RIF-1. The experiment in a line: Cytotoxicity against mouse RIF1 cells at 100 to 800 uM after 24 hrs. The format is cell-based. Conditions: rif-1, 24 h.
Data set [11] deals with T1, Prostaglandin G/H synthase 2 (Mus musculus). The experiment in a line: Inhibition of COX-2 in PH-PDT-treated mouse RIF1 cells assessed as suppression of PGE2 production at 400 uM after 24 hrs by spectrophotometric analysis.
For data set [12] the target is unchanged. Briefly: Inhibition of COX-2 in PH-PDT-treated mouse RIF1 cells assessed as suppression of PGE2 production at 800 uM after 24 hrs by spectrophotometric analysis.
Data set [13] has the same target. Briefly: Inhibition of COX-2 in PH-PDT-treated mouse RIF1 cells assessed as suppression of PGE2 production at 200 uM after 24 hrs by spectrophotometric analysis.
Data set [14] has as its system RIF-1. Briefly: Inhibition of COX2 expression levels in PH-PDT-treated mouse RIF1 cells at 800 uM after 24 hrs by Western blot analysis. The format is functional, cell-based.
The subject of data set [15] is RIF-1. The experiment in a line: Inhibition of COX2 expression levels in PH-PDT-treated mouse RIF1 cells at 250 uM after 24 hrs by Western blot analysis. The format is functional, cell-based.
The subject of data set [16] is RIF-1. The experiment in a line: Cytotoxicity against mouse RIF1 cells at 250 to 750 uM after 24 hrs. The format is cell-based. The note with it: rif-1, 24 h.
For data set [17], the target named is T1, Prostaglandin G/H synthase 2 (Mus musculus). Briefly: Inhibition of COX-2 in PH-PDT-treated mouse RIF1 cells assessed as suppression of PGE2 production at 250 uM after 24 hrs by spectrophotometric analysis.

Activity calls are given as the source filed them. No cut-off for these calls is given here.

Regarding `Cc1cc(OCc2ccccc2)c(C)c2c1CC[C@H]1[C@H](C)C(=O)O[C@@H]21`, in the data set on RIF-1 [1], the Activity result was “Toxic”. Further, the inhibition entry (in the data set on RIF-1 [2]; in data set [3]; in the data set with RIF-1 [4]; with RIF-1 [5]; in data set [6]) was “Active” each time.

Turning to `Cc1cc(OCc2ccc(C(F)(F)F)cc2)c(C)c2c1CC[C@H]1[C@H](C)C(=O)O[C@@H]21`, the inhibition entry in the data set with RIF-1 [7] is “Active”. Also, the Activity result in the data set with RIF-1 [8] was “Non-Toxic”.

`CC1=C2[C@@H]3OC(=O)[C@@H](C)[C@@H]3CC[C@@]2(C)C=CC1=O`: the Activity entry in the data set on RIF-1 [9] is reported as “Non-Toxic”. Moreover, the inhibition result (in [3]; in the data set with RIF-1 [4]) was “Active” throughout.

`CC(=O)Oc1cc(C)c2c(c1C)[C@@H]1OC(=O)[C@@H](C)[C@@H]1CC2`: the Activity entry in the data set with RIF-1 [10] is “Non-Toxic”. Besides, the inhibition result (in data set [11]; in data set [13]; with RIF-1 [14]) was “Active” throughout. Moreover, the inhibition result (in data set [12]; in the data set with RIF-1 [7]) was “inactive” in each case.

On to `Cc1cc(O)c(C)c2c1CC[C@H]1[C@H](C)C(=O)O[C@@H]21`, for which the inhibition entry in the data set on RIF-1 [15] is “inactive”. Moreover, in the data set on RIF-1 [16], the Activity entry was “Non-Toxic”. The inhibition result (in [17]; in the data set on RIF-1 [4]) was “Active” each time.
